Source: patent US20250234864A1 (priority 2022, published 2025)
Several values for one entry are separate records, joined by “and”; a condition that tells them apart may be missing. Identical values can stand only once. Like-named read-outs stand apart in the source and are kept apart here.

Experiments:
Pyricularia oryzae [1] = experiment: whole plant or invertebrate; assay type: in vivo; details: rice seedlings, spray before inoculation; for pest or weed control at 100 ppm: read-out: Control Efficacy, spray concentration 100 ppm; for pest or weed control at 1 ppm: read-out: Control Efficacy, spray concentration 1 ppm; for pest or weed control at 25 ppm: read-out: Control Efficacy, spray concentration 25 ppm; for pest or weed control at 0.01 ppm: read-out: Control Efficacy, spray concentration 0.01 ppm
Pyricularia oryzae [2] = assay type: in vivo; details: spray after lesions on rice seedlings, two natural infections

Compound: Cc1nn(C)c(F)c1C(=O)Nc1ccccc1C(C)CC(C)C (centres unmarked) [Penflufen]
- Control Efficacy (Pyricularia oryzae [1]; spray concentration 1 ppm): 11

Compound: CCCC1COC(Cn2cncn2)(c2ccc(Cl)cc2Cl)O1 (centres unmarked) [Propiconazole]
- pest or weed control at 100 ppm (Pyricularia oryzae [1]; Pyricularia oryzae): 72%
- Control Efficacy (Pyricularia oryzae [2]; spray concentration 52 ppm): 55

Compound: CC(C)(C)C(O)(CCc1ccc(Cl)cc1)Cn1cncn1 (centres unmarked) [Tebuconazole]
- pest or weed control at 10 ppm (Pyricularia oryzae [1]; Pyricularia oryzae, read-out: Control Efficacy, spray concentration 10 ppm): 58%
- Control Efficacy (Pyricularia oryzae [2]; spray concentration 52 ppm): 63

Compound: CNC(=O)C(OC)c1ccccc1COc1cc(C)ccc1C (centres unmarked) [Mandestrobin]
- Control Efficacy (Pyricularia oryzae [1]; spray concentration 0.1 ppm): 0

Compound: O=C(Nc1ccccc1-c1ccc(F)c(F)c1)c1nccnc1C(F)(F)F [Pyraziflumid]
- Control Efficacy (Pyricularia oryzae [1]; spray concentration 10 ppm): 0
- Control Efficacy (Pyricularia oryzae [1]; spray concentration 100 ppm): 56

Compound: CO/C=C(/C(=O)OC)c1ccccc1COc1cccc(C(F)(F)F)n1 [Picoxystrobin]
- Control Efficacy (Pyricularia oryzae [1]; spray concentration 0.01 ppm): 22
- Control Efficacy (Pyricularia oryzae [1]; spray concentration 0.1 ppm): 68

Compound: CC(O)(Cn1cncn1)c1ccc(Oc2ccc(Cl)cc2)cc1C(F)(F)F (centres unmarked) [Mefentrifluconazole]
- Control Efficacy (Pyricularia oryzae [1]; spray concentration 25 ppm): 35
- Control Efficacy (Pyricularia oryzae [1]; spray concentration 100 ppm): 44

Compound: Inpyrfluxam
- Control Efficacy (Pyricularia oryzae [1]; spray concentration 100 ppm): 74

Compound: OC(Cc1ccccc1Cl)(Cn1nc[nH]c1=S)C1(Cl)CC1 (centres unmarked) [Prothioconazole]
- pest or weed control at 1 ppm (Pyricularia oryzae [1]; Pyricularia oryzae): 39%
- pest or weed control at 25 ppm (Pyricularia oryzae [1]; Pyricularia oryzae): 82%
- pest or weed control at 100 ppm (Pyricularia oryzae [1]; Pyricularia oryzae): 95%

Compound: CCCCC(O)(Cn1cncn1)c1ccc(Cl)cc1Cl (centres unmarked) [Hexaconazole]
- pest or weed control at 25 ppm (Pyricularia oryzae [1]; Pyricularia oryzae): 55%
- pest or weed control at 100 ppm (Pyricularia oryzae [1]; Pyricularia oryzae): 86%

Compound: CC(C1CC1)C(O)(Cn1cncn1)c1ccc(Cl)cc1 (centres unmarked) [Ciproconazole]
- Control Efficacy (Pyricularia oryzae [1]; spray concentration 10 ppm): 11

Compound: O=C1CCc2cccc3c2N1CC3 [Pyroquilon]
- pest or weed control at 100 ppm (Pyricularia oryzae [1]; Pyricularia oryzae): 22%

Compound: CC(=O)Oc1c(C)c(C)nc2c(F)cc(C(C)(C)C)cc12 [Tebufloquin]
- Control Efficacy (Pyricularia oryzae [1]; spray concentration 10 ppm): 84 and 76 and 86 and 51 and 48
- Control Efficacy (Pyricularia oryzae [1]; spray concentration 20 ppm): 97 and 90 and 70
- Control Efficacy (Pyricularia oryzae [2]; spray concentration 83 ppm, lesions on uppermost unfolded leaf of 50 seedlings): 80 and 81

Compound: Cc1nc2c(F)c(F)ccc2cc1Oc1cccc(F)c1C(C)(C)O [Ipflufenoquin]
- Control Efficacy (Pyricularia oryzae [1]; spray concentration 0.01 ppm): 0
- Control Efficacy (Pyricularia oryzae [1]; spray concentration 0.1 ppm): 76

Compound: CC1COC(Cn2cncn2)(c2ccc(Oc3ccc(Cl)cc3)cc2Cl)O1 (centres unmarked) [Diphenoconazole]
- Control Efficacy (Pyricularia oryzae [1]; spray concentration 50 ppm): 62
- Control Efficacy (Pyricularia oryzae [1]; spray concentration 100 ppm): 86

Compound: COC(=O)N(OC)c1ccccc1COc1ccn(-c2ccc(Cl)cc2)n1 [Pyraclostrobin]
- pest or weed control at 0.01 ppm (Pyricularia oryzae [1]; Pyricularia oryzae): 44%
- pest or weed control at 0.1 ppm (Pyricularia oryzae [1]; Pyricularia oryzae, read-out: Control Efficacy, spray concentration 0.1 ppm): 64%

Compound: CON=C(C(=O)OC)c1ccccc1CON=C(C)c1cccc(C(F)(F)F)c1 [Trifloxystrobin]
- pest or weed control at 0.01 ppm (Pyricularia oryzae [1]; Pyricularia oryzae): 75%

Compound: CO/N=C(/C1=NOCCO1)c1ccccc1Oc1ncnc(Oc2ccccc2Cl)c1F [Fluoxastrobin]
- pest or weed control at 0.01 ppm (Pyricularia oryzae [1]; Pyricularia oryzae): 22%
- pest or weed control at 1 ppm (Pyricularia oryzae [1]; Pyricularia oryzae): 93%
